Test results published in patent US9790218B2, “Small molecule activators of calcium-activated chloride channels and methods of use” (The Regents of the University of California, priority 2011, dated 2017).

Tested on: human bronchi submucosal glands
Assay: Airway submucosal gland fluid secretion in human bronchi
Conditions: 30 μM T16Ainh-A01
Procedure: FIG. 6A-C. Airway submucosal gland fluid secretion in human bronchi. FIG. 6A. TMEM16A immunohistochemistry in CF (left) and non-CF (right) human bronchi showing apical membrane expression in serous gland epithelial cells (arrows). Scale bar: 20 μm. FIG. 6B. Mucous (fluid) secretion in human bronchi. (top) Images of mucus bubbles formed under oil in response to basolateral application of 300 nM carbachol (CCh) and 20 μM Eact. TMEM16A was inhibited by 30 μM T16Ainh-A01. Individual fluid bubbles marked with arrowheads. Scale bar: 0.5 mm. (bottom) CCh and Eact-induced secretion rates. Where indicated, tissues were pre-treated with T16Ainh-A01 (30 μM). Each point is the average of measurements made from 20 glands (mean±S.E. * P<0.05). FIG. 6C. Summary of human gland fluid secretion rates measured at 20 min after addition of 20 μM Eact, and 30 min after application of 300 nM carbachol (CCh) and 10 μM forskolin (20-66 glands from 3 tracheas and 4 bronchus). In CF-bronchi, 6 glands from one donor were stimulated by Eact. […]
Similar staining was found in non-CF and CF human bronchi. Fluid secretion was measured in individual submucosal glands from the increasing size of mucus (fluid) bubbles in which airway fragments were mounted in a 37° C. perfusion chamber and the mucosal solution was covered with oil.

## CCc1c(C)nc(SCC(=O)Nc2nc(-c3ccc(OC)cc3)cs2)[nH]c1=O [T16Ainh-A01, reference compound]
  effect of pre-treatment on gland fluid secretion: abolished basal and agonist-stimulated gland fluid secretion
